This experiment has as its system beta cells. Kind of experiment: Relative beta cell adhesion to biomaterial films in 96-well plates. Type of experiment: cell-based, rat. The note with it: attached cells 24 hours after plating and three washes, normalized to empty well; triplicate. How it is done: In a typical experiment, 1% stock solutions of the listed biomaterials first were prepared. Most materials dissolved in deionized water at neutral pH. […] Polymers normally soluble in water (e.g. dextran sulfate, alginate, etc.) can be cross-linked to form the film matrix. Approximately 25 μL of each stock solution was added to three individual wells in 96-well plates and left to evaporate or vacuum dried, thus, depositing a thin biomaterial film at the bottom of each well. […] Several proteins offered commercially to promote cell adhesion on well plates (e.g. fibronectin, laminin, etc.) were prescreened for cell adhesion as well.
A dilute suspension of beta cells was incubated in the 96-well plates overnight and washed three times to remove unbound beta cells. The beta cell suspension was homogeneous and equal aliquots per well were assumed to contain a similar quantity of beta cells. […] In general, mildly hydrophobic polymers performed well for adhering beta cells (Table 1).
Cell adhesion was determined by counting the number of attached cells 24 hours after plating on the biomaterial and following three washes. The counts were normalized to the number of cells that attach to a well bottom lacking a biomaterial (see empty well, control) using the following calculation: number of cells attached in the well of interest/number of cells in empty well. Each experiment was repeated in triplicate.
With Fibronectin, the Relative cell adhesion is given as 3.7 ± 0.7.
The figure for Gelatin is 2.0 ± 0.2; for Laminin it is 8.7 ± 0.6.

(Values after patent US8895048B2, “Templated islet cells and small islet cell clusters for diabetes treatment” (The University of Kansas, priority 2010, dated 2014).)
